For one test, the system named is HT29 cells. As to the kind of experiment: Inhibition of cell necrosis (CCK8 method), HT29 cells. To be noted: HT29, Human TNF-α/AT-406/Z-VAD-FMK, 16 hours, CCK8. It is filed as cell-based, human. As to the method: (§1) In this assay example 2, under the condition of inducing programmed cell necrosis of HT29 and L929 cell lines, different concentrations of the test compounds were added to test the IC50 of the rescue effect of the test compounds on the programmed necrosis.
(§2) • Compounds: dissolved in DMSO to make a 10 mM solution; • TNF-α: initial concentration of 100 µg/mL; • Z-VAD-FMK: dissolved in DMSO to make a 10 mM solution; • AT-406: dissolved in DMSO to make a 10 mM solution. • Cell lines: HT29 cells were cultured in McCoy's 5A medium containing 10% fetal bovine serum, 100 U/mL penicillin, and 100 µg/mL streptomycin, and L929 cells were cultured in MEM medium containing 10% horse serum, 100 U/mL penicillin, and 100 µg/mL streptomycin.
(§3) 1. The test compound was dissolved in DMSO to form a stock solution, and a gradient dilution was performed; the solution was then diluted with the corresponding culture medium to obtain a solution with 10 times the working concentration.
(§4) 2. The cells in the logarithmic growth phase were diluted with culture medium to a specific cell concentration. 80 µL of the cell suspension was added to a 96-well plate, so that the cell densities of HT29 and L929 were 1.2*10^4 cells/well and 2.0*10^4 cells/well, respectively. The plate was cultured in a 37° C., 5% carbon dioxide incubator overnight.
(§5) 3. […] of the compound solution was added to each well of the 96-well plate inoculated with cells. The compounds to be tested were serially diluted 4-fold to obtain 9 concentrations in duplicate, starting from a maximum concentration of 10 μM. At the same time, a control group without compound addition was set up.
(§6) 4. After the cells were cultured for another 30 minutes, 10 μL of the inducer mixture was added to each well. The final concentrations of Human TNF-α, AT-406 and Z-VAD-FMK in HT29 cells were 20 ng/mL, […] and 20 μM, respectively; and the final concentrations of Murine TNF-α and Z-VAD-FMK in L929 cells were 20 ng/mL and 25 μM, respectively.
(§7) 5. The 96-well plate in which compounds and inducer were added was placed in a 37° C., 5% carbon dioxide incubator for further culture, wherein HT29 cells were cultured for 16 hours and L929 cells were cultured for 4-8 hours. Cell viability was detected by CCK8. GraphPad Prism software was used to prepare a dose-effect curve and IC50 was calculated.
For orientation: Tetrazolium dyes change colour on reduction, which living cells bring about.

A further test has as its system L929 cells. As to the kind of experiment: Inhibition of cell necrosis (CCK8 method), L929 cells. Type of test: cell-based, mouse. The following applies: 4-8 hours, CCK8. The procedure:
as §1, §2, §3, §4, §5, §6, §7

The mark [1] stands for this setting: Mus musculus, L929, L929, Murine TNF-α/Z-VAD-FMK.

Each structure is given as a SMILES string.

Regarding `O=C(C1CCN(c2cc(-c3cc(OCCCO)ccc3Cl)ccn2)CC1)N1N=CCC1c1cc(F)cc(F)c1` (stereo not drawn) [Example 17, (1-(4-(2-chloro-5-(3-hydroxypropoxy)phenyl)pyridin-2-yl)piperidin-4-yl)(5-(3,5-difluorophenyl)-4,5-dihydro-1H-pyrazol-1-yl)methanone], the IC50 in the test with HT29 cells (Homo sapiens, HT-29, 16 h) is 10 to 50 nM; in the test on L929 cells (setting [1]), 50 to 100 nM.
In the case of `COCCOc1ccc(C)c(-c2ccnc(N3CCC(C(=O)N4N=CCC4c4ccccc4F)CC3)c2)c1` (stereo not drawn) [Example 19, (5-(2-fluorophenyl)-4,5-dihydro-1H-pyrazol-1-yl)(1-(4-(5-(2-methoxyethoxy)-2-methylphenyl)pyridin-2-yl)piperidin-4-yl)methanone], the IC50 is at most 10 nM in the test on HT29 cells (Homo sapiens, HT-29, 16 h) and 10 to 50 nM in the test on L929 cells (setting [1]).
With `Cc1ccc(OCCCO)cc1-c1ccnc(N2CCC(C(=O)N3N=CCC3c3ccccc3F)CC2)c1` (stereo not drawn) [Example 20, (5-(2-fluorophenyl)-4,5-dihydro-1H-pyrazol-1-yl)(1-(4-(5-(3-hydroxypropoxy)-2-methylphenyl)pyridin-2-yl)piperidin-4-yl)methanone], the IC50 in the test on HT29 cells was 10 to 50 nM; in the test on L929 cells (L929, Murine TNF-α/Z-VAD-FMK), 10 to 50 nM.
Consider `O=C(C1CCN(c2cc(-c3cc(OCCO)ccc3F)ccn2)CC1)N1N=CCC1c1cc(F)cc(F)c1` (stereo not drawn) [Example 22, (5-(3,5-difluorophenyl)-4,5-dihydro-1H-pyrazol-1-yl)(1-(4-(2-fluoro-5-(2-hydroxyethoxy)phenyl)pyridin-2-yl)piperidin-4-yl)methanone], for which the IC50 was at most 10 nM in the test with HT29 cells (Homo sapiens, HT-29, 16 h) and 50 to 100 nM with L929 cells (setting [1]).
Consider `O=C(C1CCN(c2cc(-c3cc(OCCCCCO)ccc3F)ccn2)CC1)N1N=CCC1c1cc(F)cc(F)c1` (stereo not drawn) [Example 25, (5-(3,5-difluorophenyl)-4,5-dihydro-1H-pyrazol-1-yl)(1-(4-(2-fluoro-5-((5-hydroxypentyl)oxy)phenyl)pyridin-2-yl)piperidin-4-yl)methanone], for which the IC50 is at most 10 nM in the test with HT29 cells (Homo sapiens, HT-29, 16 h) and 10 to 50 nM in the test with L929 cells (setting [1]).
Take `CC(C)(O)CCCCOc1ccc(F)c(-c2ccnc(N3CCC(C(=O)N4N=CCC4c4cc(F)cc(F)c4)CC3)c2)c1` (stereo not drawn) [Example 26, (5-(3,5-difluorophenyl)-4,5-dihydro-1H-pyrazol-1-yl)(1-(4-(2-fluoro-5-((5-hydroxy-5-methylhexyl)oxy)phenyl)pyridin-2-yl)piperidin-4-yl)methanone]: the IC50 in the test on HT29 cells (Homo sapiens, HT-29, 16 h) is at most 10 nM; with L929 cells (setting [1]), 10 to 50 nM.
For the molecule `O=C(C1CCN(c2cc(-c3cc(OCCCF)ccc3F)ccn2)CC1)N1N=CCC1c1cc(F)cc(F)c1` (stereo not drawn) [Example 27, (5-(3,5-difluorophenyl)-4,5-dihydro-1H-pyrazol-1-yl)(1-(4-(2-fluoro-5-(3-fluoropropoxy)phenyl)pyridin-2-yl)piperidin-4-yl)methanone], the IC50 is at most 10 nM in the test with HT29 cells (Homo sapiens, HT-29, 16 h) and 50 to 100 nM in the test with L929 cells (setting [1]).
On the same counts, the results for `COCCOc1ccc(C)c(-c2ccnc(N3CCC(C(=O)N4N=CCC4c4ccccc4)CC3)c2)c1` (stereo not drawn) [Example 28, (1-(4-(5-(2-methoxyethoxy)-2-methylphenyl)pyridin-2-yl)piperidin-4-yl)(5-phenyl-4,5-dihydro-1H-pyrazol-1-yl)methanone] are at most 10 nM and 50 to 100 nM.
On to `Cc1ccc(OCCCO)cc1-c1ccnc(N2CCC(C(=O)N3N=CCC3c3ccccc3F)CC2)c1` (stereo not drawn) [Example 29, (5-(2-fluorophenyl)-4,5-dihydro-1H-pyrazol-1-yl)(1-(4-(5-(3-hydroxypropoxy)-2-methylphenyl)pyridin-2-yl)piperidin-4-yl)methanone], for which the IC50 in the test with HT29 cells (Homo sapiens, HT-29, 16 h) lay in the range of 10 to 50 nM; in the test on L929 cells (L929, Murine TNF-α/Z-VAD-FMK), 50 to 100 nM.
For `COCCCOc1ccc(F)c(-c2ccnc(N3CCC(C(=O)N4N=CCC4c4cc(F)cc(F)c4)CC3)c2)c1` (stereo not drawn) [Example 30, (5-(3,5-difluorophenyl)-4,5-dihydro-1H-pyrazol-1-yl)(1-(4-(2-fluoro-5-(3-methoxypropoxy)phenyl)pyridin-2-yl)piperidin-4-yl)methanone], the IC50 with HT29 cells (Homo sapiens, HT-29, 16 h) is at most 10 nM; in the test with L929 cells (setting [1]), 50 to 100 nM.
Take `Cc1ccc(OCCCO)cc1-c1ccnc(N2CCC(C(=O)N3N=CCC3c3ccccc3)CC2)c1` (stereo not drawn) [Example 31, (1-(4-(5-(3-hydroxypropoxy)-2-methylphenyl)pyridin-2-yl)piperidin-4-yl)(5-phenyl-4,5-dihydro-1H-pyrazol-1-yl)methanone]: the IC50 in the test on HT29 cells (Homo sapiens, HT-29, 16 h) is at most 10 nM; with L929 cells (setting [1]), 10 to 50 nM.
With `COCCCCOc1ccc(C)c(-c2ccnc(N3CCC(C(=O)N4N=CCC4c4cc(F)cc(F)c4)CC3)c2)c1` (stereo not drawn) [Example 32, (5-(3,5-difluorophenyl)-4,5-dihydro-1H-pyrazol-1-yl)(1-(4-(5-(4-methoxybutoxy)-2-methylphenyl)pyridin-2-yl)piperidin-4-yl)methanone], the IC50 with HT29 cells (Homo sapiens, HT-29, 16 h) was at most 10 nM; in the test with L929 cells (L929, Murine TNF-α/Z-VAD-FMK) it was 10 to 50 nM.
As for `Cc1ccc(OCC2CCOCC2)cc1-c1ccnc(N2CCC(C(=O)N3N=CCC3c3cc(F)cc(F)c3)CC2)c1` (stereo not drawn) [Example 33, (5-(3,5-difluorophenyl)-4,5-dihydro-1H-pyrazol-1-yl)(1-(4-(2-methyl-5-((tetrahydro-2H-pyran-4-yl)methoxy)phenyl)pyridin-2-yl)piperidin-4-yl)methanone], the IC50 with HT29 cells (Homo sapiens, HT-29, 16 h) was at most 10 nM; with L929 cells (setting [1]) it was 10 to 50 nM.
Take `COCCCCOc1ccc(C)c(-c2ccnc(N3CCC(C(=O)N4N=CCC4c4cc(F)cc(F)c4)CC3)c2)c1` (stereo not drawn) [Example 34, (5-(3,5-difluorophenyl)-4,5-dihydro-1H-pyrazol-1-yl)(1-(4-(5-(4-methoxybutoxy)-2-methylphenyl)pyridin-2-yl)piperidin-4-yl)methanone]: the IC50 was in the range of 10 to 50 nM in the test with HT29 cells and 50 to 100 nM with L929 cells (L929, Murine TNF-α/Z-VAD-FMK).
On to `Cc1ccc(OCCCCO)cc1-c1ccnc(N2CCC(C(=O)N3N=CCC3c3cc(F)cc(F)c3)CC2)c1` (stereo not drawn) [Example 35, (5-(3,5-difluorophenyl)-4,5-dihydro-1H-pyrazol-1-yl)(1-(4-(5-(4-hydroxybutoxy)-2-methylphenyl)pyridin-2-yl)piperidin-4-yl)methanone], for which the IC50 lay in the range of 10 to 50 nM with HT29 cells and 50 to 100 nM with L929 cells (L929, Murine TNF-α/Z-VAD-FMK).
In the case of `O=C(C1CCN(c2cc(-c3cc(OCCCCO)ccc3F)ccn2)CC1)N1N=CCC1c1cc(F)cc(F)c1` (stereo not drawn) [Example 36, (5-(3,5-difluorophenyl)-4,5-dihydro-1H-pyrazol-1-yl)(1-(4-(2-fluoro-5-(4-hydroxybutoxy)phenyl)pyridin-2-yl)piperidin-4-yl)methanone], the IC50 with HT29 cells (Homo sapiens, HT-29, 16 h) was at most 10 nM; with L929 cells (setting [1]), 50 to 100 nM.
As for `O=C(C1CCN(c2cc(-c3cc(OCC(F)(F)CO)ccc3F)ccn2)CC1)N1N=CCC1c1cc(F)cc(F)c1` (stereo not drawn) [Example 37, (1-(4-(5-(2,2-difluoro-3-hydroxypropoxy)-2-fluorophenyl)pyridin-2-yl)piperidin-4-yl) (5-(3,5-difluorophenyl)-4,5-dihydro-1H-pyrazol-1-yl)methanone], the IC50 with HT29 cells (Homo sapiens, HT-29, 16 h) is at most 10 nM; in the test with L929 cells (setting [1]) it was 10 to 50 nM.
For `O=C(C1CCN(c2nccc(-c3cc(OCCCO)ccc3F)n2)CC1)N1N=CCC1c1cc(F)cc(F)c1` (stereo not drawn) [Example 38, (5-(3,5-difluorophenyl)-4,5-dihydro-1H-pyrazol-1-yl)(1-(4-(2-fluoro-5-(3-hydroxypropoxy)phenyl)pyrimidin-2-yl)piperidin-4-yl)methanone], the IC50 in the test on HT29 cells (Homo sapiens, HT-29, 16 h) lay in the range of 10 to 50 nM; in the test with L929 cells (setting [1]) it was 50 to 100 nM.
As to `CC(C)(O)CCOc1ccc(F)c(-c2ccnc(N3CCC(C(=O)N4N=CCC4c4cc(F)cc(F)c4)CC3)n2)c1` (stereo not drawn) [Example 39, (5-(3,5-difluorophenyl)-4,5-dihydro-1H-pyrazol-1-yl)(1-(4-(2-fluoro-5-(3-hydroxy-3-methylbutoxy)phenyl)pyrimidin-2-yl)piperidin-4-yl)methanone], the IC50 in the test on HT29 cells (Homo sapiens, HT-29, 16 h) was at most 10 nM; in the test with L929 cells (setting [1]), 50 to 100 nM.
In the case of `CCC(O)(CC)COc1ccc(F)c(-c2ccnc(N3CCC(C(=O)N4N=CCC4c4cc(F)cc(F)c4)CC3)c2)c1` (stereo not drawn) [Example 44, [5-(3,5-difluorophenyl)-4,5-dihydro-1H-pyrazol-1-yl]-[1-[4-[5-(2-ethyl-2-hydroxybutoxy)-2-fluorophenyl]pyridin-2-yl]piperidin-4-yl]methanone], the IC50 is at most 10 nM with HT29 cells (Homo sapiens, HT-29, 16 h) and 10 to 50 nM in the test on L929 cells (setting [1]).
As for `O=C(C1CCN(c2cc(-c3cc(OCC4(O)CC4)ccc3F)ccn2)CC1)N1N=CCC1c1cc(F)cc(F)c1` (stereo not drawn) [Example 45, [5-(3,5-difluorophenyl)-4,5-dihydro-1H-pyrazol-1-yl]-[1-[4-[2-fluoro-5-[(1-hydroxycyclopropyl)methoxy]phenyl]pyridin-2-yl]piperidin-4-yl]methanone], the half-maximal inhibitory concentration (IC50) is at most 10 nM in the test with HT29 cells (Homo sapiens, HT-29, 16 h) and 10 to 50 nM in the test with L929 cells (setting [1]).

The IC50 is the concentration that inhibits the measured activity by half. Read a high IC50 as weaker potency in that assay.

(Values after patent US20250074892A1, “CARBONYL BRIDGED HETEROCYCLIC COMPOUND, AND COMPOSITION AND APPLICATION THEREOF” (BEIJING SCITECH-MQ PHARMACEUTICALS LIMITED, priority 2022, published 2025).)
